The values below are quoted from earlier work in publication PMC11249953, “c-KIT inhibitors reduce pathology and improve behavior in the Tg(SwDI) model of Alzheimer’s disease” (Life Science Alliance, 2024).

Broadly, the IC50 is the point on the concentration scale where inhibition reaches its midpoint.

Molecules are shown by their SMILES. Read-outs that look alike come from different tables or passages of the source.

The subject of one data set is c-KIT. Also noted: method as in Dubreuil et al, 2009. To be noted: ref Dubreuil et al, 2009; cited from earlier work.
The next data set concerns APPswe/PSEN1dE9 mice. More on the design: method as in Li et al, 2020. Particulars: chronic oral treatment, ref Li et al, 2020; cited from earlier work.
The conditions of data set [1]: ref Li et al, 2020, cited from earlier work.

On to `Cc1ccc(NC(=O)c2ccc(CN3CCN(C)CC3)cc2)cc1Nc1nc(-c2cccnc2)cs1` [Masitinib], for which the concentration for half-maximal inhibition (IC50) with c-KIT was […]. For the same compound, in the data set on APPswe/PSEN1dE9 mice, the amyloid-β and neuroinflammation entry is listed as “not reducing amyloid-β or attenuating neuroinflammation”; the spatial learning performance entry is on record as “reverse spatial learning performance”. The brain penetrance entry in data set [1] is on record as “poor brain penetrance”. The brain penetrance result in data set [1] (listed as masitinib) was “poor brain penetrant”.
